Read-outs that look alike come from different tables or passages of the source.

Data set [1] deals with classical pathway of complement. As to the kind of experiment: Inhibition of classical pathway complement activation, ELISA in human serum. Format: biochemical. Conditions: relative to peptide 1; NA: not active. As for the experimental part:
The ability of the compstatin analogs to inhibit the activation of the classical pathway of complement was assessed by ELISA (Mallik et al., 2005, J Med Chem 48:274-86). In brief, complement was activated in human serum using an antigen-antibody complex in the presence or absence of compstatin analogs, and the deposition of C3 fragments on the plate surface was detected using an HRP-conjugated polyclonal anti-C3 antibody. […] The percent inhibition was plotted against the peptide concentration, and the resulting data set was fitted to the logistic dose-response function using Origin 7.0 software. IC50 values were obtained from the fitted parameters that produced the lowest χ^2 value. Each analog was assayed at least three to seven times.
The ability of the compstatin analogs to inhibit the activation of the classical pathway of complement was assessed by ELISA as described in Example 1. Each conjugate was assayed at least three times.
In general terms: ELISA stands for enzyme-linked immunosorbent assay.

For data set [2] the test system is unchanged. The following applies: data from Sahu et al., 1996; cited from earlier work.
Data set [3] in a line: In vivo retention: plasma half-life in baboons by LC-MS/MS. Further details: species or system baboon (P. Anubis). Conditions: for half-life: baboon (P. Anubis). How it is done: A 96-well plate HLB Oasis 10 mg (Waters, Milford, Mass.) was employed for extraction. The SPE material was conditioned by addition of 500 μl of methanol followed by addition of 500 μL of milli-Q water. Sample was prepared by addition of the internal standard followed by 1:1 dilution with 4% H3PO4. After loading the sample, washing was carried out with 500 μL of 5% methanol in 0.1% formic acid. Sample was eluted with 150 μL of 65% methanol in 0.1% formic acid and collected in the collection plate. Solvent was evaporated to dryness in a speed-vac concentrator and reconstituted in 5% acetonitrile in 0.1% formic acid. Samples were kept at −20° C. until analysis.
Baboon plasma samples, 40 μL, were mixed with internal standard and dissolved 1:1 with 40 mM ammonium carbonate buffer. Rapigest detergent was added to a final concentration of 0.1%. Disulfide bridges were reduced in 5 mM DTT for 30 min at 60° C. Alkylation of cysteines was done by addition of iodoacetamide to a final concentration of 15 mM and incubation for 30 min in dark. The sample was enzymatically digested by addition of 16 μL of a 1 μG/μL trypsin solution and incubation overnight at 37° C. After that, the sample pH was lowered with 5% TFA to induce detergent degradation. To avoid nonspecific adsorption of very hydrophobic peptides, acetonitrile was added to 20%. The samples were centrifuged at 6° C. and 14000 rpm for 30 min and the supernatant was diluted with 0.1% formic acid to reduce acetonitrile concentration to 10% prior to filtration with a 10 kDa cut-off microcon centrifugal filter (Millipore, Billerica, Mass.). The filter was washed with 50 μL of 10% ACN in 0.1% formic acid and the collected sample was evaporated to dryness and reconstituted with 10% ACN in 0.1% formic acid.
LC-MS/MS analysis was performed on a SYNAPT HDMS (Waters, Milford, Mass.) controlled by MassLynx 4.1 software (Waters) and equipped with a nanoESI source. Each sample was injected in triplicate. A nanoACQUITY UPLC (Waters) system was used for peptide separation by reversed-phase liquid chromatography. After injection, analytes were trapped for 3 min with 3% mobile phase A (0.1% formic acid in water) at 5 μl/min on a 5 μm Symmetry C18 column (180 μm×20 mm, Waters) and further separated on a 1.7 μm BEH130 C18 column (75 μm×150 mm, Waters). The analytical column temperature was held at 35° C. Peptides were separated at flow rate 0.3 μl/min. The gradient was linear 3-40% B (0.1% formic acid in acetonitrile), either 50 min long, or 60 min for the digested samples. The capillary voltage was 3.2 kV, the cone voltage was 35 V and the source temperature was 100° C. [Glu1]-fibrinogen peptide was used for lock-mass correction with a sampling rate of 30 s. Mass spectra were acquired in positive mode over an m/z range 400-2000 Da at scan rate 0.6 s. The time window used for the MS/MS function was ±3 min of the retention time of the selected peptide. The presence of the analyte was confirmed by MS/MS. Selectivity was studied by analysis of blank samples to determine the presence of any interference coeluting with the analyte.
Juvenile baboons (P. Anubis, Baboon Research Resources, University of Oklahoma) weighing 5-8 kg were used. Three baboons were used for the study; one for each compound. All animals received a bolus dose of peptides (10 mg) by injection through the peripheral vein. […]

Another data set has as its target T1, C3b (Homo sapiens, UniProt P01024).
T1 construct: biotin (chemical biotinylation of C3b)
Briefly: SPR analysis of binding kinetics to immobilized C3b. The following applies: SPR, Table 2-1. As for the experimental part: (§1) The kinetics of the interaction between C3b and each compstatin analog was analyzed by SPR on a Biacore 3000 instrument (GE Healthcare Corp., Piscataway, N.J.) at 25° C. using PBS-T (10 mM sodium phosphate, 150 mM NaCl, 0.005% Tween-20, pH 7.4) as the running buffer, as described above. In brief, biotinylated C3b (30 μg/mL) was immobilized on a streptavidin-coated sensor chip, and a two-fold serial dilution series (1 μM-500 pM) of each analog was injected for 2 min at 30 μl/min, with a dissociation phase of 5-10 min. Peptide [Trp(Me)^4]-Ac-compstatin was included in each experimental series as an internal control and reference. Data analysis was performed using Scrubber (BioLogic Software, Campbell, Australia). The signals from an untreated flow cell and an ensemble of buffer blank injections were subtracted to correct for buffer effects and injection artifacts. Processed biosensor data were globally fitted to a 1:1 Langmuir binding model, and the equilibrium dissociation constant (KD) was calculated from the equation KD=kd/ka. Peptide solutions were injected in duplicate in every experiment, and each screening assay was performed at least twice.
as §1, with “in Example 1.” for “above.”, “μg/ml)” for “μg/mL)”, “Peptide [Trp(Me)^4]-Ac-compstatin was included in each experimental series as an internal control and reference.” left out
For orientation: In SPR one partner is held on a chip, and binding of the other changes the refractive index at the surface.

T1 sequence (P01024 23-667 limits assumed): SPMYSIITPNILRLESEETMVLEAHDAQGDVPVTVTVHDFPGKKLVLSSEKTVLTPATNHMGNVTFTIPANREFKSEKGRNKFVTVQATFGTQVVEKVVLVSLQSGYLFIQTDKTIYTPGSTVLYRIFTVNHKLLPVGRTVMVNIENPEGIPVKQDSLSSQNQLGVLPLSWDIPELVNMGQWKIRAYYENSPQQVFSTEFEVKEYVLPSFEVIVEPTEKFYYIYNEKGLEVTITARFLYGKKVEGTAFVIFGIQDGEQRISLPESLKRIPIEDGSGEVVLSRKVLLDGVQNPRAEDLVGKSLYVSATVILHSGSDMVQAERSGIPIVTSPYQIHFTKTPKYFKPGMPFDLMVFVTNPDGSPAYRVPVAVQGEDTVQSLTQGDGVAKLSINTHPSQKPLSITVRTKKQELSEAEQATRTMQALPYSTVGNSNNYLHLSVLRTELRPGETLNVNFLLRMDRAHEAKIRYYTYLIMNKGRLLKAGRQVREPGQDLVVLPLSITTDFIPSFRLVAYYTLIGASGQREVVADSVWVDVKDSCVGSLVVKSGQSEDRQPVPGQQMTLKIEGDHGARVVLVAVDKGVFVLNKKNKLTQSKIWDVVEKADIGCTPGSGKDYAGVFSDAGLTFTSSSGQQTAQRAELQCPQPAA
T1 sequence (P01024 749-1663 limits assumed): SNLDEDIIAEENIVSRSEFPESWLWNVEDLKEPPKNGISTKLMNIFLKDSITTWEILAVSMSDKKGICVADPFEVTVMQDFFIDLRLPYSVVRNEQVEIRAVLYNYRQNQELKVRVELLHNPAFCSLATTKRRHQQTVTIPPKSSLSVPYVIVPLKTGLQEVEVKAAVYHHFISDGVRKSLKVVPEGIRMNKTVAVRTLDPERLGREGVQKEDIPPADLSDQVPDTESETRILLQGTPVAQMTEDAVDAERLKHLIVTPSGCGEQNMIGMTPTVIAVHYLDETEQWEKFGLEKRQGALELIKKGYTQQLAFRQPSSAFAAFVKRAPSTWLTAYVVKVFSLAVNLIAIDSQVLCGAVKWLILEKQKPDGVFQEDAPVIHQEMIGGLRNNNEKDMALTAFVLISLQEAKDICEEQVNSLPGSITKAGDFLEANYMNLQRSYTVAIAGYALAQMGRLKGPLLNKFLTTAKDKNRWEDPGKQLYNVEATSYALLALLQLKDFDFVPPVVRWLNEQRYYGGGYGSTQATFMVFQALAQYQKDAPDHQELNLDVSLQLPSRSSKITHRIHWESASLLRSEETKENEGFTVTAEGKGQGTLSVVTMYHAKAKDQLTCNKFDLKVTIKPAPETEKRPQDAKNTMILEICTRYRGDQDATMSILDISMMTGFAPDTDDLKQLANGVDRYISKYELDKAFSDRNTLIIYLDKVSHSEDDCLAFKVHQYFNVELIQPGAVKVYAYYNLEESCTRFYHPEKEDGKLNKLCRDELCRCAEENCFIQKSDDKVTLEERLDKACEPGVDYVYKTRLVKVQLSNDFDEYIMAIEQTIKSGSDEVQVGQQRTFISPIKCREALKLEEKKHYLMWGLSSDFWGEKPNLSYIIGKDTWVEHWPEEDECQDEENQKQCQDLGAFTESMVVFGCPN

The term IC50 denotes the concentration at which inhibition is half-maximal. With “Ac-I[CVYQDWGAHRC]T-NH2 [Peptide 1, reference compound]”, in data set [1], the IC50-fold change is 1. Moreover, in data set [2], the concentration for half-maximal inhibition (IC50) is 2400 nM.
The term half-life denotes the time needed for the level to fall by half in the phase considered. As usually defined, the Kd is a measure of binding affinity in units of concentration. Low readings indicate tighter binding, high ones weaker binding. In data set [3] (in vivo, iv, 10 mg), `CC[C@H](C)[C@H](NC(C)=O)C(=O)N[C@H]1CSSC[C@@H](C(=O)N[C@H](C(=O)NCCOCCOCCOCC(=O)NCCOCCOCCOCC(=O)N[C@@H](CCCCNC(=O)CCNS(=O)(=O)c2ccc3ccccc3c2)C(N)=O)[C@@H](C)CC)NC(=O)[C@H](CCCNC(=N)N)NC(=O)[C@H](Cc2c[nH]cn2)NC(=O)[C@H](C)NC(=O)CN(C)C(=O)[C@H](Cc2c[nH]c3ccccc23)NC(=O)[C@H](CC(=O)O)NC(=O)[C@H](CCC(N)=O)NC(=O)[C@H](Cc2cn(C)c3ccccc23)NC(=O)[C@H](C(C)C)NC1=O` [Peptide 17-ABM] gave a half-life of 5 h. Further, the “fold improvement of half-life” value in data set [3] (in vivo) is recorded as 5 fold. At C3b, the equilibrium dissociation constant (Kd) came to 4.7 nM; the Koff is given as 5.6 10^−3, s^−1; the Kon is 1.2 10^6, M^−1 · s^−1.
With `CC[C@H](C)[C@H](NC(C)=O)C(=O)N[C@H]1CSSC[C@@H](C(=O)N[C@H](C(=O)NCCOCCOCCOCC(=O)NCCOCCOCCOCC(=O)N[C@@H](CCCCNC(=O)Cn2cc(C(=O)N[C@@H](CCCNC(=N)N)C(=O)N[C@@H](CC(C)C)C(=O)N[C@H](C(=O)N[C@@H](CCC(=O)O)C(=O)N[C@@H](CC(=O)O)C(=O)N[C@H](C(=O)N[C@H]3CSSC[C@@H](C(=O)N[C@@H](CC(C)C)C(=O)N[C@@H](Cc4c[nH]c5ccccc45)C(=O)N[C@@H](CCC(=O)O)C(=O)N[C@@H](CC(=O)O)C(=O)N[C@@H](CC(=O)O)C(N)=O)NC(=O)CNC(=O)[C@H](Cc4c[nH]c5ccccc45)NC(=O)[C@H](CCCNC(=N)N)NC(=O)[C@@H]4CCCN4C(=O)[C@H](CC(C)C)NC3=O)[C@@H](C)CC)[C@@H](C)CC)nn2)C(N)=O)[C@@H](C)CC)NC(=O)[C@H](CCCNC(=N)N)NC(=O)[C@H](Cc2c[nH]cn2)NC(=O)[C@H](C)NC(=O)CN(C)C(=O)[C@H](Cc2c[nH]c3ccccc23)NC(=O)[C@H](CC(=O)O)NC(=O)[C@H](CCC(N)=O)NC(=O)[C@H](Cc2cn(C)c3ccccc23)NC(=O)[C@H](C(C)C)NC1=O` [Peptide 17-ABP], the half-life in data set [3] (in vivo, baboon, intravenous bolus 10 mg, read-out: plasma half-life (converted)) is 21 h. Moreover, in data set [3] (relative to unconjugated peptide 17, baboon), the “fold improvement of half-life” value came to 21 fold. At C3b, the dissociation constant (Kd) came out at 32 nM; the Koff is 3.6 10^−3, s^−1; the Kon is reported as 0.1 10^6, M^−1 · s^−1.

The values above are taken from patent US9371365B2, “Modified compstatin with peptide backbone and C-terminal modifications” (The Trustees of the University of Pennsylvania, priority 2009, dated 2016).
